Source: ChEMBL document CHEMBL2331486, “Identification of diaryl 5-amino-1,2,4-oxadiazoles as tubulin inhibitors: the special case of 3-(2-fluorophenyl)-5-(4-methoxyphenyl)amino-1,2,4-oxadiazole” (Bioorg Med Chem Lett, 2013)
Calls of active or inactive are those of the source. The rule behind the calls is not given here.

What was measured:
[1] = Growth inhibition of human NCI60 cells; assay type: functional
Tubulin = test: Inhibition of tubulin (unknown origin) assembly after 20 mins by turbidimetric analysis; assay type: protein-complex assay, Homo sapiens
Tubulin (Homo sapiens) [2] = biological target: T1, Tubulin (Homo sapiens) (UniProt P68371+Q9H4B7+P0DPH7+P68366+Q13509+Q71U36+P04350+Q3ZCM7+P07437+P68363+Q9BQE3+Q6PEY2+Q13885+Q9BVA1+Q9BUF5); settings: at 1 µM
Description: Displacement of [3H]colchicine from tubulin (unknown origin) at 1 uM after 10 mins

Tubulin (Homo sapiens) [3] = biological target: T1, Tubulin (Homo sapiens); settings: at 5 µM
Description: Displacement of [3H]colchicine from tubulin (unknown origin) at 5 uM after 10 mins

T47D = test: Cytotoxicity against human T47D cells; assay type: functional
MDA-MB-468 = test: Cytotoxicity against human MDA-MB-468 cells; assay type: functional
MDA-MB-231 [4] = test: Cytotoxicity against human MDA-MB-231 cells; assay type: functional
[5] = Cytotoxicity against human Hs 578T cells; assay type: functional
DU-145 [6] = test: Cytotoxicity against human DU145 cells; assay type: functional
MCF7 = test: Cytotoxicity against human MCF7 cells; assay type: functional
TK-10 = test: Cytotoxicity against human TK10 cells; assay type: functional
UO-31 = test: Cytotoxicity against human UO31 cells; assay type: functional
PC-3 [7] = test: Cytotoxicity against human PC3 cells; assay type: functional
RXF 393 = test: Cytotoxicity against human RXF393 cells; assay type: functional
SN12C = test: Cytotoxicity against human SN12C cells; assay type: functional
ACHN = test: Cytotoxicity against human ACHN cells; assay type: functional
CAKI-1 = test: Cytotoxicity against human Caki1 cells; assay type: functional
SK-OV-3 = test: Cytotoxicity against human SKOV3 cells; assay type: functional
A498 = test: Cytotoxicity against human A498 cells; assay type: functional
OVCAR-4 = test: Cytotoxicity against human OVCAR4 cells; assay type: functional
OVCAR-5 = test: Cytotoxicity against human OVCAR5 cells; assay type: functional
OVCAR-8 = test: Cytotoxicity against human OVCAR8 cells; assay type: functional
IGROV-1 = test: Cytotoxicity against human IGROV1 cells; assay type: functional
OVCAR-3 = test: Cytotoxicity against human OVCAR3 cells; assay type: functional
UACC-257 = test: Cytotoxicity against human UACC257 cells; assay type: functional
UACC-62 = test: Cytotoxicity against human UACC62 cells; assay type: functional
SK-MEL-28 = test: Cytotoxicity against human SK-MEL-28 cells; assay type: functional
SK-MEL-5 = test: Cytotoxicity against human SK-MEL-5 cells; assay type: functional
MDA-MB-435 = test: Cytotoxicity against human MDA-MB-435 cells; assay type: functional
SK-MEL-2 = test: Cytotoxicity against human SK-MEL-2 cells; assay type: functional
SNB-75 = test: Cytotoxicity against human SNB75 cells; assay type: functional
U-251 = test: Cytotoxicity against human U251 cells; assay type: functional
Malme-3M = test: Cytotoxicity against human MALME-3M cells; assay type: functional
SF-539 = test: Cytotoxicity against human SF539 cells; assay type: functional
SNB-19 = test: Cytotoxicity against human SNB19 cells; assay type: functional
SF-268 = test: Cytotoxicity against human SF268 cells; assay type: functional
SF-295 = test: Cytotoxicity against human SF295 cells; assay type: functional
HT-29 = test: Cytotoxicity against human HT-29 cells; assay type: functional
KM12 = test: Cytotoxicity against human KM12 cells; assay type: functional
SW-620 = test: Cytotoxicity against human SW620 cells; assay type: functional
COLO 205 = test: Cytotoxicity against human COLO205 cells; assay type: functional
HCT-15 = test: Cytotoxicity against human HCT15 cells; assay type: functional
NCI-H460 = test: Cytotoxicity against human NCI-H460 cells; assay type: functional
NCI-H522 = test: Cytotoxicity against human NCI-H522 cells; assay type: functional
NCI-H226 = test: Cytotoxicity against human NCI-H226 cells; assay type: functional
NCI-H322M = test: Cytotoxicity against human NCI-H322M cells; assay type: functional
HOP-62 = test: Cytotoxicity against human HOP62 cells; assay type: functional
HOP-92 = test: Cytotoxicity against human HOP92 cells; assay type: functional
A549 = test: Cytotoxicity against human A549 cells; assay type: functional
[8] = Cytotoxicity against human EKVX cells; assay type: functional
MOLT-4 = test: Cytotoxicity against human MOLT4 cells; assay type: functional
RPMI-8226 = test: Cytotoxicity against human RPMI8226 cells; assay type: functional
K562 = test: Cytotoxicity against human K562 cells; assay type: functional
CCRF-CEM = test: Cytotoxicity against human CCRF-CEM cells; assay type: functional
HL-60(TB) = test: Cytotoxicity against human HL-60(TB) cells; assay type: functional
[9] = Growth inhibition of human KBV1a cells; assay type: functional; settings: pooled result: one value given for 5 cell lines, strains, targets or settings
MDA-MB-231 [10] = test: Growth inhibition of human MDA-MB-231 cells; assay type: functional
PANC-1 = test: Growth inhibition of human PANC1 cells; assay type: functional
HCT-116 = test: Growth inhibition of human HCT116 cells; assay type: functional
DU-145 [11] = test: Growth inhibition of human DU145 cells; assay type: functional
PC-3 [12] = test: Growth inhibition of human PC3 cells; assay type: functional

## CCOc1ccc(Nc2nc(-c3cccc(OC)c3)no2)cc1
[1]
  GI50: 851 nM
Tubulin
  IC50: 1600 nM
Tubulin (Homo sapiens) [2]
  inhibition: 37%
Tubulin (Homo sapiens) [3]
  inhibition: 78%

## COc1ccc(/C=C\c2cc(OC)c(OC)c(OC)c2)cc1O [COMBRETASTATIN A4]
[1]
  GI50: 14.8 nM

## COc1ccc(OC)c(-c2noc(Nc3ccc4c(c3)OCO4)n2)c1
[1]
  GI50: 6460 nM
Tubulin
  IC50: 2500 nM
Tubulin (Homo sapiens) [2]
  inhibition: 21%
Tubulin (Homo sapiens) [3]
  inhibition: 52%

## COc1ccc(Nc2nc(-c3ccccc3F)no2)cc1
T47D
  GI50: 15100 nM
MDA-MB-468
  GI50: 1070 nM
MDA-MB-231 [4]
  GI50: 676 nM
[5]
  GI50: 389 nM
DU-145 [6]
  GI50: 141 nM
MCF7
  GI50: 263 nM
TK-10
  GI50: 832 nM
UO-31
  GI50: 339 nM
PC-3 [7]
  GI50: 447 nM
RXF 393
  GI50: 155 nM
SN12C
  GI50: 240 nM
ACHN
  GI50: 490 nM
CAKI-1
  GI50: 64.6 nM
SK-OV-3
  GI50: 204 nM
A498
  GI50: 229 nM
OVCAR-4
  GI50: 776 nM
OVCAR-5
  GI50: 724 nM
OVCAR-8
  GI50: 209 nM
IGROV-1
  GI50: 389 nM
OVCAR-3
  GI50: 38 nM
UACC-257
  GI50: 14100 nM
UACC-62
  GI50: 53.7 nM
SK-MEL-28
  GI50: 339 nM
SK-MEL-5
  GI50: 151 nM
MDA-MB-435
  GI50: 19.9 nM
SK-MEL-2
  GI50: 39.8 nM
SNB-75
  GI50: 141 nM
U-251
  GI50: 60.3 nM
Malme-3M
  GI50: 58.9 nM
SF-539
  GI50: 107 nM
SNB-19
  GI50: 87.1 nM
SF-268
  GI50: 501 nM
SF-295
  GI50: 61.7 nM
HT-29
  GI50: 34.7 nM
KM12
  GI50: 112 nM
SW-620
  GI50: 47.9 nM
COLO 205
  GI50: 126 nM
HCT-15
  GI50: 85.1 nM
NCI-H460
  GI50: 61.7 nM
NCI-H522
  GI50: 19.9 nM
NCI-H226
  GI50: 2190 nM
NCI-H322M
  GI50: 501 nM
HOP-62
  GI50: 135 nM
HOP-92
  GI50: 3800 nM
A549
  GI50: 91.2 nM
[8]
  GI50: 1510 nM
MOLT-4
  GI50: 91.2 nM
RPMI-8226
  GI50: 372 nM
K562
  GI50: 30.9 nM
CCRF-CEM
  GI50: 138 nM
HL-60(TB)
  GI50: 25.7 nM
[1]
  GI50: 204 nM
Tubulin
  IC50: 1100 nM
Tubulin (Homo sapiens) [2]
  inhibition: 68%
Tubulin (Homo sapiens) [3]
  inhibition: 91%

## CCOc1ccc(Nc2nc(-c3ccccc3)no2)cc1
Tubulin
  IC50: 1200 nM
Tubulin (Homo sapiens) [2]
  inhibition: 49%
Tubulin (Homo sapiens) [3]
  inhibition: 82%

## COc1cccc(-c2noc(Nc3ccc(OC)c(Cl)c3)n2)c1
[1]
  GI50: 562 nM
Tubulin
  IC50: 2300 nM
Tubulin (Homo sapiens) [2]
  inhibition: 36%
Tubulin (Homo sapiens) [3]
  inhibition: 73%

## COc1ccc(OC)c(Nc2nc(-c3cccc(OC)c3OC)no2)c1
Tubulin (Homo sapiens) [2]
  inhibition: inactive
Tubulin (Homo sapiens) [3]
  inhibition: inactive

## CCc1ccc(Nc2nc(-c3ccccc3F)no2)cc1
Tubulin
  IC50: 2700 nM
Tubulin (Homo sapiens) [2]
  inhibition: 41%
Tubulin (Homo sapiens) [3]
  inhibition: 73%

## COc1ccc(Nc2nc(-c3cccc(OC)c3OC)no2)cc1
[1]
  GI50: 245 nM
Tubulin
  IC50: 2600 nM
Tubulin (Homo sapiens) [2]
  inhibition: 31%
Tubulin (Homo sapiens) [3]
  inhibition: 68%

## COc1ccc(-n2cnnc2-c2cc(OC)c(OC)c(OC)c2)cc1
[9]
  GI50: 464 nM

## Cc1ccc(Nc2nc(-c3ccccc3)no2)cc1
Tubulin
  IC50: 1400 nM
Tubulin (Homo sapiens) [2]
  inhibition: 61%
Tubulin (Homo sapiens) [3]
  inhibition: 88%

## COc1cccc(-c2noc(Nc3ccc4c(c3)OCCO4)n2)c1
Tubulin
  IC50: 1900 nM
Tubulin (Homo sapiens) [2]
  inhibition: 38%
Tubulin (Homo sapiens) [3]
  inhibition: 76%

## CCOc1ccc(Nc2nc(-c3cccc(OC)c3OC)no2)cc1
Tubulin
  IC50: 1800 nM
Tubulin (Homo sapiens) [2]
  inhibition: 20%
Tubulin (Homo sapiens) [3]
  inhibition: 56%

## CCc1ccc(Nc2nc(-c3cc(OC)ccc3OC)no2)cc1
[1]
  GI50: 575 nM
Tubulin
  IC50: 1800 nM
Tubulin (Homo sapiens) [2]
  inhibition: 36%
Tubulin (Homo sapiens) [3]
  inhibition: 65%

## COc1ccc(OC)c(-c2noc(Nc3ccc4c(c3)OCCO4)n2)c1
Tubulin
  IC50: 3500 nM
Tubulin (Homo sapiens) [2]
  inhibition: 23%
Tubulin (Homo sapiens) [3]
  inhibition: 50%

## CCOc1ccc(Nc2nc(-c3ccccc3F)no2)cc1
Tubulin
  IC50: 1700 nM
Tubulin (Homo sapiens) [2]
  inhibition: 42%
Tubulin (Homo sapiens) [3]
  inhibition: 76%

## COc1ccc(Nc2nc(-c3cccc(OC)c3)no2)cc1
MDA-MB-231 [10]
  GI50: 9.77 nM
PANC-1
  GI50: 9.77 nM
HCT-116
  GI50: 9.77 nM
DU-145 [11]
  GI50: 9.77 nM
PC-3 [12]
  GI50: 9.77 nM
Tubulin
  IC50: 1900 nM
Tubulin (Homo sapiens) [2]
  inhibition: 58%
Tubulin (Homo sapiens) [3]
  inhibition: 90%

## Fc1ccccc1Nc1nc(-c2ccccc2)no1
Tubulin (Homo sapiens) [2]
  inhibition: inactive
Tubulin (Homo sapiens) [3]
  inhibition: inactive

## COc1ccc(Nc2nc(-c3ccccc3)no2)cc1Cl
Tubulin
  IC50: 1700 nM
Tubulin (Homo sapiens) [2]
  inhibition: 52%
Tubulin (Homo sapiens) [3]
  inhibition: 80%

## COc1cccc(-c2noc(Nc3ccc4c(c3)OCO4)n2)c1
[1]
  GI50: 1230 nM
Tubulin
  IC50: 2200 nM
Tubulin (Homo sapiens) [2]
  inhibition: 40%
Tubulin (Homo sapiens) [3]
  inhibition: 76%

## COc1cccc(-c2noc(Nc3ccc(C)cc3)n2)c1OC
[1]
  GI50: 2630 nM
Tubulin
  IC50: 3600 nM
Tubulin (Homo sapiens) [2]
  inhibition: 24%
Tubulin (Homo sapiens) [3]
  inhibition: 52%

## CCOC(=O)c1cccc(Nc2nc(-c3ccc(OC)cc3)no2)c1
Tubulin (Homo sapiens) [2]
  inhibition: inactive
Tubulin (Homo sapiens) [3]
  inhibition: inactive

## CCc1ccc(Nc2nc(-c3cccc(OC)c3)no2)cc1
Tubulin
  IC50: 1600 nM
Tubulin (Homo sapiens) [2]
  inhibition: 40%
Tubulin (Homo sapiens) [3]
  inhibition: 81%

## COc1ccc(OC)c(-c2noc(Nc3ccc(C)c(F)c3)n2)c1
Tubulin
  IC50: 3500 nM
Tubulin (Homo sapiens) [2]
  inhibition: inactive
Tubulin (Homo sapiens) [3]
  inhibition: 53%

## Cc1ccc(Nc2nc(-c3ccccc3F)no2)cc1F
[1]
  GI50: 851 nM
Tubulin
  IC50: 1600 nM
Tubulin (Homo sapiens) [2]
  inhibition: 52%
Tubulin (Homo sapiens) [3]
  inhibition: 81%

## Cc1ccc(Nc2nc(-c3ccccc3F)no2)cc1
[1]
  GI50: 603 nM
Tubulin
  IC50: 1600 nM
Tubulin (Homo sapiens) [2]
  inhibition: 57%
Tubulin (Homo sapiens) [3]
  inhibition: 85%

## COc1cccc(-c2noc(Nc3ccc(C)cc3)n2)c1
Tubulin
  IC50: 1500 nM
Tubulin (Homo sapiens) [2]
  inhibition: 56%
Tubulin (Homo sapiens) [3]
  inhibition: 85%

## COc1ccc(-n2cnnc2-c2cc(OC)c(OC)c(OC)c2)cc1F
[9]
  GI50: 556 nM
